Experimental data taken from patent publication US20250073234A1, “COMBINATION THERAPIES INCLUDING PARP1 INHIBITORS” (Cornell University, priority 2022, published 2025).
Entries after “also recorded” stand apart in the source; their conditions may differ. Where two headings read alike, the source gives them in different places.

Experiments:
[1] = system: c-FOS and c-JUN at the AP-1A site of the SQSTM1 promoter; experiment: ChIP-PCR of SQSTM1 promoter (AP-1A) occupancy in WPMY-1 cells; assay type: cell-based, human; settings: 48 h
Method: WPMY-1 cells were fixed by adding directly to the culture medium formaldehyde (HCHO; from a 37% HCHO-10% methanol stock, Calbiochem) to a final concentration of 1%. […] Chromatin was sheared in a COVARIS S220 Focused-ultrasonicator to yield DNA fragment sizes of 200-1000 base pairs, and diluted 10 times in dilution buffer (20 mM Tris pH 8.0, 2 mM EDTA, 1% triton X-100, 150 mM NaCl and protease inhibitors). Immunoprecipitations were carried out overnight at 4° C. using the following protein A-antibodies complexes: cFOS, FOSB, cJUN, JUNB.
Immunocomplexes were washed three times with buffer TSEI (20 mM Tris pH 8.0, 2 mM EDTA, 1% triton X-100, 150 mM NaCl, 0.1% SDS and protease inhibitors), three washes with buffer TSEII (20 mM Tris pH 8.0, 2 mM EDTA, 1% triton X-100, 500 mM NaCl, 0.1% SDS and protease inhibitors), one wash with buffer TSEIII (10 mM Tris pH 8.0, 250 mM LiCl, 1 mM EDTA, 1% NP40, 1% Deoxycholate and protease inhibitors) and one wash with TE pH 8.0.
Immunocomplexes were extracted in TE containing 1% SDS, and protein-DNA cross-links were reverted by heating at 65° C. overnight. DNA was extracted by using a PCR purification kit (Qiagen). One-tenth of the immunoprecipitated DNA was used in each PCR, for which the promoter-specific primers were used.

WPMY-1 cells = experiment: Autophagy activation by LC3 lipidation in WPMY-1 cells; assay type: cell-based, human; settings: with lysosomal inhibitors
Excerpt: To knock out PARP-1 in WPMY-1 cells, single-guide RNA sequences targeting PARP-1 exon2 were purchased from Synthego and transduced into WPMY-1 cells with recombinant Streptococcus pyogenes Cas9 protein (Truecut Cas9 Protein v2, Thermo), using the Neon Transfection System 1 (Invitrogen) following the manufacturer's protocol and single clones were expanded and screened by protein immunoblotting. To perform AP1-A binding site editing in the SQSTM promoter in WPMY-1 cells, single-guide RNA sequences targeting the human AP1-A binding site (Synthego) was transduced into cells with a Cas9 protein and a single-stranded donor oligonucleotide (ssODN, IDT) using Neon Electroporation System. Single clones were expanded and screened for AP1-A editing by Sanger sequencing. A point mutation to disrupt the API enhancer element in the p62 promoter was introduced by Site Directed Mutagenesis (Stratagene). Knockdown of MCT1, MCT4, FOS, PARP1, PARP2, CD38, ATG5, and SIRT1-7 genes in WPMY-1 cells were achieved by siRNA transfection using Lipofectamine RNAiMAX Transfection Reagent (Invitrogen). […]
Cells for protein analysis were lysed in RIPA buffer (20 mM Tris-HCl, […], 2 mM EDTA, 1% Triton-X, 10% glycerol, 0.1% SDS, and 0.5% sodium deoxycholate) with phosphatase and protease inhibitors. […] Protein concentration in lysates was determined by using Protein Assay Kit (Bio-Rad). […]

[2] = system: p62 in prostate, lung, breast and endometrial primary fibroblasts; experiment: p62 immunoblot in primary fibroblasts of different tissue origins; assay type: cell-based; settings: Olaparib 20 μM, 4 days
Method: Cells for protein analysis were lysed in RIPA buffer (20 mM Tris-HCl, […], 2 mM EDTA, 1% Triton-X, 10% glycerol, 0.1% SDS, and 0.5% sodium deoxycholate) with phosphatase and protease inhibitors. For immunoprecipitations, cells were lysed in IP lysis buffer (100 mM NaCl, 25 mM Tris, 1% Triton-X, 10% glycerol, with phosphatase and protease inhibitors) and immunoprecipitated with 25 μl of 50% slurry of protein […] beads (Bioworld). Immunoprecipitates were washed three times with lysis buffer, once with high salt (500 mM NaCl), and once more with lysis buffer. Protein concentration in lysates was determined by using Protein Assay Kit (Bio-Rad). Cell extracts and immunoprecipitated proteins were denatured, subjected to SDS-PAGE, transferred to PVDF membranes (GE Healthcare). After blocking with 5% nonfat dry milk in Tris-buffered saline and 0.1% Tween (TBS-T), the membranes were incubated with the specific antibodies (as listed in Key Resources Table) overnight at 4° C. After 2 hours incubation with the appropriate horseradish peroxidase-conjugated antibodies, the immune complexes were detected by chemiluminescence (Thermo Scientific) or Near-infrared fluorescence (LI-COR).

[3] = system: prostate cancer bone metastasis; experiment: Paired biopsies of bone metastasis from a mCRPC patient, IHC for HA; assay type: in vivo, human

## NC(=O)c1ccc[n+]([C@@H]2O[C@H](COP(=O)([O-])OP(=O)(O)OC[C@H]3O[C@@H](n4cnc5c(N)ncnc54)[C@H](O)[C@@H]3O)[C@@H](O)[C@H]2O)c1 [NAD^+]
[1]; added to lactate-treated WPMY-1 cells
  recruitment of c-FOS and c-JUN to the AP-1 regulatory site in lactate-treated cells: rescued

## O=C(c1cc(Cc2n[nH]c(=O)c3ccccc23)ccc1F)N1CCN(C(=O)C2CC2)CC1 [Olaparib]
[1]; Olaparib 20 μM
  recruitment of c-FOS and c-JUN to the AP-1A binding site in the SQSTM1 promoter: impaired the recruitment of c-FOS and c-JUN
WPMY-1 cells
  autophagy activation (LC3 lipidation): induced autophagy activation; also recorded: induces autophagy
[2]
  p62 expression: downregulated p62 expression
[3]
  HA deposition in bone metastasis, pre- vs post-treatment: increased HA deposition
[3]; listed as Ola
  HA deposition in bone metastasis, pre- vs post-treatment: robust increase in HA deposition
